Values of other authors, collected in publication PMC8956739, “A synthetic lipopeptide targeting top-priority multidrug-resistant Gram-negative pathogens” (Nature Communications, 2022).

Test system: female cynomolgus monkeys
Set-up: method as in earlier work
Conditions: 3.8 mg/kg/12 h (7.6 mg/kg/day) for 7 days ref 27; cited from earlier work

In the case of Polymyxin B [reference compound], the kidney findings is listed as “increased histological damage in all test animals”.
